Measurements: patent US20150101077A1, “INDUCIBLE PROMOTER SEQUENCES FOR REGULATED EXPRESSION AND METHODS OF USE” (PIONEER HI-BRED INTERNATIONAL INC, priority 2012, published 2015)

Experiments:
1.0 kb ZmCAS1 promoter [1] = experiment: Northern analysis of MS45 mRNA in ms45/ms45 maize callus transformed with PHP16972; type: cell-based; conditions: 100 mg/liter CBSU, room temperature, 18 hours, FIG. 6
From the text: T-DNA vectors PHP16972 (SEQ ID NO:13, ZmCAS1HindIII Pro: MS45/35S:PAT) and PHP16973 (SEQ ID NO: 14, ZmCAS1 BamPro:MS45/35S:PAT) were used to transform maize callus which was generated to contain a segregating population of MS45/ms45 heterozygous and ms45/ms45 homozygous mutant plants. In order to detect MS45 RNA or protein expression under the control of the 1.0 or 1.7 kb ZmCAS promoter in maize anthers, plants containing a naturally occurring mutation in the maize MS45 gene which results in loss of MS45 RNA and protein were used for these studies. Pollen from MS45/ms45 plants were used to fertilize male-sterile ms45/ms45 plants for the purpose of generating embryos which would be ms45/ms45 as described in Cigan et al 2001. […] Five random bialophos-resistant callus events containing integrated copies of PHP16972 were placed onto maintenance media (FIG. 5, (−)) and maintenance media containing 100 mg/liter safener CBSU-2 (FIG. 5 (+)) at room temperature for 18 hours, removed and PolyA+RNA prepared and used for RNA analysis as described (Cigan et al. 2001. Sex. Plant Reprod. 14, 135-142) using the ZmMS45 and ZmActin probes for hybridization analysis. […] A very low signal was observed when callus was grown in the absence of CBSU. Actin was used as a control probe to show nearly equivalent RNA levels were present in all samples. […]

1.7 kb ZmCAS1 promoter [2] = experiment: X-Gluc GUS staining of maize callus transformed with PHP16975; type: cell-based; conditions: room temperature, 18 hours, FIG. 4A
From the text: Agrobacterium-mediated transformation of immature embryos was used to generate integrated copies of PHP16974 (SEQ ID NO:11; ZmCAS1HindIII Pro:GUS/35SPAT) comprising the 1.0 kb ZmCAS1 promoter (SEQ ID NO:9), PHP16975 (SEQ ID NO:12, ZmCAS1BamPro:GUS/35SPAT) comprising the 1.7 kb ZmCAS1 promoter (SEQ ID NO:10) and PHP16972 (SEQ ID NO:13, ZmCAS1 HindIII Pro:MS45/35SPAT) comprising the 1.0 kb ZmCAS1 promoter or PHP16973 (SEQ ID NO:14, ZmCASIBamPro:MS45/35SPAT:) comprising the 1.7 kb ZmCAS1 promoter.
To determine whether the 1.7 kb or the 1.0 kb ZmCAS1 promoter from maize could direct induced expression of the GUS reporter, three bialophos-resistant callus events were placed onto maintenance media and maintenance media containing increasing amounts of the safener CBSU-2 for at room temperature for 18 hours, removed and stained with X-Gluc to detect GUS activity.

1.7 kb ZmCAS1 promoter [3] = experiment: GUS expression in leaf punches of maize plants transformed with PHP16975; type: in vivo; conditions: 2 days after watering with 30 mg of 2-CBSU, 3 PHP16975 plants, FIG. 5
Description: Plants were also regenerated from callus events containing PHP16975 and grown in the greenhouse to approximately the 5 leaf stage. At this stage of development, leaf punches from plants regenerated from the 3 bialophos-resistant events shown in FIG. 5 were collected pre- (C) and post-watering (S) with 30 mg of 2-CBSU to examine GUS expression in leaf in response to application of the safener.

1.0 kb ZmCAS1 promoter [4] = experiment: X-Gluc GUS staining of rice callus transformed with PHP16974; type: cell-based, Oryza sativa cv.Kitaake; conditions: PHP16974 callus events, 100 mg/liter CBSU, 24 hours, FIG. 9
From the text: To determine whether the ZmCAS1 promoter could conditionally regulate expression in response to safener treatment or heat treatment in plant species other than maize, Agrobacterium-mediated transformation was used to generate integrated copies of PHP16974 (ZmCAS1HindIII Pro:GUS) comprising the truncated 1.0 kb ZmCAS1 promoter for studies in rice. Scutellum from 10-14 day old germinating seeds (Oryza sativa cv.Kitaake) was used for rice transformation experiment (Toki. 1997, PI Mol. Biol Reporter 15:16-21). Bialophos-resistant callus events containing PHP16974 were selected and screened for their ability to respond to safener application. Four independent bialophos-resistant events were grown on maintenance media or maintenance media containing 100 mg/liter CBSU for 24 hours, removed and stained with X-Gluc. […] PHP16974 bialophos-resistant events were regenerated into plants. Leaf tissue was collected from these plants and used for DNA hybridization analyses to identify single-copy PHP16974 insertions. These plants were allowed to set selfed seed and were used for subsequent studies to monitor GUS expression under the transcriptional control of the ZmCAS1 promoter. Sixteen seed were selected from 2 single-copy PHP16974 events were sterilized, grown on hormone-free media at 28° C. or 37° C. for 48 hours and allowed to germinate. […]

1.0 kb ZmCAS1 promoter [5] = experiment: X-Gluc GUS staining of maize callus transformed with PHP16974; type: cell-based; conditions: seven PHP16974 callus events, 100 mg/liter CBSU, room temperature, FIG. 4B
1.7 kb ZmCAS1 promoter [6] = experiment: Western analysis of MS45 protein in ms45/ms45 maize plants transformed with PHP16973; type: in vivo; conditions: PHP16973 plants watered with 30 mg of CBSU, collected 2 days later
IN2-2 transcript = experiment: Northern blot of maize anther RNA with IN2-2 probe after CBSU treatment; type: in vivo; conditions: CBSU-treated male-fertile and male-sterile plants, FIG. 2
Description: Wild type maize plants were grown to the meiosis stage of microspore development. Plants were watered with 30 mg 2-CBSU and allowed to develop to the quartet and early vacuolate stage of microspore development. PolyA+ anther RNA was isolated from wild type control and CBSU treated plants and stored. A cDNA library was constructed from mRNAs isolated from CBSU-treated plants, arrayed onto nylon filters and stored. A cDNA subtraction library was generated using the Clontech PCR-Select cDNA Subtraction Kit (#K1804-1) following the manufacturer's instructions to enrich for CBSU-specific transcripts. Using this approach anther PolyA+mRNA from wild-type plants was used to enrich for transcripts found in the anther PolyA+mRNA from CBSU treated plants. […]
(§1) To determine whether the ZmCAS1 cDNA was 1) induced in maize anthers by CBSU-treatment and 2) reduced or absent in tapetum and microspore-ablated maize anthers from CBSU-treated 5126:DAM plants, a 477 bp ZmCAS1c-1 DNA fragment (SEQ ID NO:1), as well as DNA fragments from ZmMS45, Zm5126, ZmActin, and ZmUbiquitin (Cigan et al. 2001. […] MS45 and 5126 transcripts were easily detected in anther RNAs from male-fertile plants but absent in anther RNAs from male-sterile plants (FIG. 2) further supporting the observation that these RNAs are localized to the maize tapetum (Cigan et al. 2001. Sex. Plant Reprod. 14, 135-142).

ZmCAS1 transcript = experiment: Northern blot of maize RNA with ZmCAS1 probe after CBSU treatment; type: in vivo; conditions: for ZmCAS1 hybridization signal in anther mRNA: FIG. 2
Description: Wild type maize plants were grown to the meiosis stage of microspore development. Plants were watered with 30 mg 2-CBSU and allowed to develop to the quartet and early vacuolate stage of microspore development. PolyA+ anther RNA was isolated from wild type control and CBSU treated plants and stored. A cDNA library was constructed from mRNAs isolated from CBSU-treated plants, arrayed onto nylon filters and stored. A cDNA subtraction library was generated using the Clontech PCR-Select cDNA Subtraction Kit (#K1804-1) following the manufacturer's instructions to enrich for CBSU-specific transcripts. Using this approach anther PolyA+mRNA from wild-type plants was used to enrich for transcripts found in the anther PolyA+mRNA from CBSU treated plants. This cDNA subtraction library was subcloned into pSPORT (BRL) vector, colonies plated, picked and sequenced. Among the vector inserts sequenced, two DNA sequences were present at a high proportion, at more than 10% of the inserts sequenced, and referred to as ZmCAS1c-1 (477 bp; SEQ ID NO: 1) and ZmCAS1c-2 (438 bp; SEQ ID NO: 2) (QBSU-Anther-Subtract 1). Both ZmCAS1c-1 and ZmCAS1c-2 had sequence identity to mannitol dehydrogenases from plants. ZmCASlc-1 and ZmCAS1c-2 DNA fragments were used as hybridization probes to screen the filter arrayed cDNA CBSU-anther library described above to isolate full-length cDNA containing hybridizing clones. Both ZmCAS1c-1 and ZmCAS1c-2 identified identical cDNA clones. […]
as §1

In the case of `NC(=O)NS(=O)(=O)c1ccccc1Cl` [CBSU, N-(aminocarbonyl)-2-chlorobenzenesulfonamide], the “MS45 mRNA hybridization signal in callus” value (1.0 kb ZmCAS1 promoter [1]) is reported as “strong induction of a hybridization signal”, the “GUS expression in callus” value (1.7 kb ZmCAS1 promoter [2]; 10 mg/l CBSU) is reported as “low levels of GUS expression” and the “GUS expression in callus” value (1.7 kb ZmCAS1 promoter [2]; 100 mg/l CBSU) is reported as “strong GUS expression”. The “GUS expression in leaf punches” value (1.7 kb ZmCAS1 promoter [3]) was “strong GUS expression”, the “GUS expression in rice callus” value (1.0 kb ZmCAS1 promoter [4]) was “strong GUS expression” and the “GUS expression in callus” value (1.0 kb ZmCAS1 promoter [5]) was “inducible GUS expression”. The “MS45 protein in leaf extracts” value (1.7 kb ZmCAS1 promoter [6]; FIG. 7) was “increased steady-state levels of the MS45 protein”, the “MS45 protein in anther extracts” value (1.7 kb ZmCAS1 promoter [6]; FIG. 8) was “Increased MS45 protein” and the “IN2-2 hybridization signal in anther mRNA” value (IN2-2 transcript) was “strong hybridization signals”. The “ZmCAS1 hybridization in mRNAs from callus, leaf and anther” value (ZmCAS1 transcript; maize callus or leaf treated with CBSU, FIG. 3) was “strong hybridization”, the “ZmCAS1 hybridization signal in anther mRNA” value (ZmCAS1 transcript; male-fertile CBSU-treated plants (+, F)) was “strong hybridization signals” and the “ZmCAS1 hybridization signal in anther mRNA” value (ZmCAS1 transcript; male-sterile 5126:DAM CBSU-treated plants (+, S)) was “reduced ZmCAS1 signal”.
